In US10393633B2, “Sample fixation and stabilisation” (RNASSIST LTD., priority 2013, dated 2019):
Read-outs that look alike come from different tables or passages of the source.

Experiments:
[1] = Solid or liquid state of the mixtures at 24° C. / 100° C.; assay type: physicochemical; settings: for Room temperature (24° C.) DES liquid on mixing with Choline chloride: 1:2 mol:mol proportion
RNA of guanidine lysate = assay: RNA yields from Guanidine/Choline chloride:Trifluoroacetamide mixtures in the absence of ethanol for binding (Example 30, Table 11); parameters: species or system mouse; settings: no ethanol
RNA in rat tissue = assay: RNA stabilisation in animal tissue by DES mixtures, 37° C. 18 hours, RNA yield and gel RNA quality (Example 3, Tables 1 and 2)
[2] = Table 1, solid or liquid at room temperature
[3] = 0 highly degraded to 10 highest quality, 18S/28S rRNA on agarose gel, 37° C. 18 hours

Room temperature (24° C.) DES liquid on mixing with Choline chloride [1]	Structure (SMILES)	other results
could not be prepared	O=C(O)[C@@H]1CCCN1 [Proline]	–
–	NC(=O)C(F)(F)F [Trifluoroacetamide]	RNA yield compared with Choline chloride:Trifluoroacetamide dissolved in Buffer RLT (1:1 wt:wt) (RNA of guanidine lysate): 15%
could not be prepared	O=CN1CCOCC1 [4-Formyl morpholine]	–
could not be prepared	O=C1OCCO1 [Ethylene carbonate]	–
–	C[N+](C)(C)CCO.[Cl-] [Choline chloride:Water (6M), Choline chloride, reference compound]	Liquid at 24° C. [1]: Saturated; RNA Quality 0-10 (RNA in rat tissue): 3
–	N.N.N.O=P(O)(O)O [Ammonium phosphate]	Formation of room temperature DES liquids by ammonium salts [1]: not capable of forming room temperature DES liquids
could not be prepared	CC(C)(C)C(N)=O [Pivalamide]	–
–	C[N+](C)(C)CC(=O)O [Betaine:Water (Sat'd), Betaine, reference compound]	Liquid at 24° C. [1, 2]: Yes; RNA Quality 0-10 (RNA in rat tissue; [3]): 0
–	NC(N)=O [Water:Urea (5M), Urea, reference compound]	Liquid at 24° C. [1, 2]: Saturated; RNA Quality 0-10 (RNA in rat tissue; [3]): 0
could not be prepared	CCn1ccnc1 [N-Ethylimidazole]	–
could not be prepared	CCN1CCCC1=O [1-Ethyl-2-pyrrol]	–
could not be prepared	CN1CCN(C)C1=O [1,3-Dimethyl-2-imidazolidone]	–
could not be prepared	NC(=O)C(N)=O [Oxamide]	–

Structure (SMILES)	Room temperature (24° C.) DES liquid on mixing with Choline chloride [1]	other results
CC(=O)CCC(C)=O [Acetonyl acetone]	could not be prepared	–
c1ccc(Cn2ccnc2)cc1 [1-Benzylimidazole]	could not be prepared	–
